Results: patent US6624119B1, “3-[Benz(ox/thi)azol-7-yl]-1h-pyrimidine-2,4-diones” (BASF Aktiengesellschaft, priority 1998, dated 2003)

Columns and labels:
Assay in all cases: greenhouse herbicidal test, post-emergence
Assay type in all cases: in vivo
Solanum nigrum = Solanum nigrum (black nightshade), application rates 15.6 or 7.8 kg/ha a.s., 2 to 4 weeks
Excerpt: (§1) The growing containers used were plastic pots containing loamy sand with approximately 3.0% of humus as the substrate. The seeds of the test plants were sown separately for each species.
(§2) For the post-emergence treatment, the test plants were first grown to a plant height of 3 to 15 cm, depending on the growth habit, and only then treated with the active ingredients which had been suspended or emulsified in water. The test plants were either sown directly and grown in the same containers or first grown separately as seedlings and transplanted into the test containers a few days prior to treatment. The rate of application for the post-emergence treatment was only 15.6 or […] of a.s. (active substance).
(§3) Depending on the species, the plants were kept at 10-25° C. or 20-35° C. The test period extended over 2 to 4 weeks. During this time, the plants were tended, and their response to the individual treatments was evaluated.
(§4) Evaluation was carried out using a scale from 0 to 100. 100 means no emergence of the plants or complete destruction of at least the aerial parts, and 0 means no damage or normal course of growth.
(§5) The plants used in the greenhouse experiments belonged to the following species: […]

Amaranthus retroflexus = Amaranthus retroflexus (redroot pigweed), application rates 15.6 or 7.8 kg/ha a.s., 2 to 4 weeks
Excerpt: as §1, §2, §3, §4, §5

Chenopodium album = Chenopodium album (lambsquarters), application rates 15.6 or 7.8 kg/ha a.s., 2 to 4 weeks
Excerpt: as §1, §2, §3, §4, §5

Abutilon theophrasti = Abutilon theophrasti (velvet leaf), application rates 15.6 or 7.8 kg/ha a.s., 2 to 4 weeks
Excerpt: as §1, §2, §3, §4, §5

Measured: efficacy (complete destruction; scale 0 to 100)

Cn1c(C(F)(F)F)cc(=O)n(-c2c(F)cc(Cl)c3nc(C4CCCC4)oc23)c1=O [Ia.3, 3-[4-Chloro-2-cyclopentyl-6-fluorobenzoxazol-7-yl]-1-methyl-6-trifluoromethyl-2,4-(1H,3H)-pyrimidinedione]
100%: all assays above
